PubChem BioAssay (NCI)
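Step 1: Grow cells in 96-well plates. Step 2: Expose to compound for 48 hours at 5 concentrations. Step 3: Interpolate endpoints linearly; if unreached, use highest concentration. Here, GI50 denotes the concentration required for 50% inhibition of growth. TGI: concentration producing complete growth inhibition.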

Tests used:
Test in all cases: DTP human tumour cell line panel, 48 h; in the data active means GI50 below about 0.43 µM; inactive means the rest
786-0 renal = system: 786-0 renal
A498 renal = system: A498 renal
A549 NSCLC = system: A549 NSCLC
ACHN renal = system: ACHN renal
BT-549 breast = system: BT-549 breast
CAKI-1 renal = system: CAKI-1 renal
CCRF-CEM leukemia = system: CCRF-CEM leukemia
DU-145 prostate = system: DU-145 prostate
EKVX NSCLC = system: EKVX NSCLC
HCC-2998 colon = system: HCC-2998 colon
HCT-116 colon = system: HCT-116 colon
HCT-15 colon = system: HCT-15 colon
HL-60(TB) leukemia = system: HL-60(TB) leukemia
HOP-62 NSCLC = system: HOP-62 NSCLC
HOP-92 NSCLC = system: HOP-92 NSCLC
HS 578T breast = system: HS 578T breast
HT29 colon = system: HT29 colon
IGROV1 ovarian = system: IGROV1 ovarian
KM12 colon = system: KM12 colon
LOX IMVI melanoma = system: LOX IMVI melanoma
M14 melanoma = system: M14 melanoma
MALME-3M melanoma = system: MALME-3M melanoma
MCF7 breast = system: MCF7 breast
MDA-MB-231 breast = system: MDA-MB-231 breast
MDA-MB-435 = system: MDA-MB-435
MDA-MB-468 breast = system: MDA-MB-468 breast
MOLT-4 leukemia = system: MOLT-4 leukemia
NCI-H226 lung = system: NCI-H226 lung
NCI-H23 lung = system: NCI-H23 lung
NCI-H460 lung = system: NCI-H460 lung
NCI-H522 lung = system: NCI-H522 lung
NCI/ADR-RES ovarian = system: NCI/ADR-RES ovarian
OVCAR-3 ovarian = system: OVCAR-3 ovarian
OVCAR-4 ovarian = system: OVCAR-4 ovarian
OVCAR-5 ovarian = system: OVCAR-5 ovarian
OVCAR-8 ovarian = system: OVCAR-8 ovarian
PC-3 prostate = system: PC-3 prostate
RPMI-8226 leukemia = system: RPMI-8226 leukemia
RXF 393 renal = system: RXF 393 renal
SF-268 CNS = system: SF-268 CNS
SF-295 CNS = system: SF-295 CNS
SF-539 CNS = system: SF-539 CNS
SK-MEL-2 melanoma = system: SK-MEL-2 melanoma
SK-MEL-28 melanoma = system: SK-MEL-28 melanoma
SK-MEL-5 melanoma = system: SK-MEL-5 melanoma
SK-OV-3 ovarian = system: SK-OV-3 ovarian
SN12C renal = system: SN12C renal
SNB-19 CNS = system: SNB-19 CNS
SNB-75 CNS = system: SNB-75 CNS
SR leukemia = system: SR leukemia
T-47D breast = system: T-47D breast
TK-10 renal = system: TK-10 renal
U251 CNS = system: U251 CNS
UACC-257 melanoma = system: UACC-257 melanoma
UACC-62 melanoma = system: UACC-62 melanoma
UO-31 renal = system: UO-31 renal

COc1ccc(NC(=O)Cn2c(/C=C/c3ccc(N(C)C)cc3)nc3ccccc3c2=O)cc1
24 µM: TGI (MALME-3M melanoma)
10.4 µM: TGI (SK-MEL-5 melanoma)
74.9 µM: TGI (HS 578T breast)
5.43 µM: TGI (BT-549 breast)
8.35 µM: TGI (SK-OV-3 ovarian)
31.3 µM: TGI (UO-31 renal)
22.5 µM: TGI (NCI-H23 lung)
inactive: GI50 (786-0 renal) 2030 nM | GI50 (A498 renal) 4.19 µM | GI50 (A549 NSCLC) 13.9 µM | GI50 (ACHN renal) 3.25 µM | GI50 (BT-549 breast) 2010 nM | GI50 (CAKI-1 renal) 4.12 µM | GI50 (CCRF-CEM leukemia) > 100 µM | GI50 (DU-145 prostate) 7.64 µM | GI50 (EKVX NSCLC) 40.3 µM | GI50 (HCC-2998 colon) 6.21 µM | GI50 (HCT-116 colon) 3.05 µM | GI50 (HCT-15 colon) 13.6 µM | GI50 (HL-60(TB) leukemia) > 100 µM | GI50 (HOP-62 NSCLC) 5 µM | GI50 (HOP-92 NSCLC) 3.65 µM | GI50 (HS 578T breast) 4.88 µM | GI50 (HT29 colon) 6.32 µM | GI50 (IGROV1 ovarian) 36.7 µM | GI50 (KM12 colon) > 100 µM | GI50 (LOX IMVI melanoma) 4.48 µM | GI50 (M14 melanoma) 12.9 µM | GI50 (MALME-3M melanoma) 3.95 µM | GI50 (MCF7 breast) 4.35 µM | GI50 (MDA-MB-231 breast) 2610 nM | GI50 (MDA-MB-435) 7.19 µM | GI50 (MDA-MB-468 breast) 3.11 µM | GI50 (MOLT-4 leukemia) > 100 µM | GI50 (NCI-H226 lung) 2310 nM | GI50 (NCI-H23 lung) 3.79 µM | GI50 (NCI-H460 lung) 3.63 µM | GI50 (NCI-H522 lung) 5.69 µM | GI50 (NCI/ADR-RES ovarian) 3.51 µM | GI50 (OVCAR-3 ovarian) > 100 µM | GI50 (OVCAR-4 ovarian) 28.9 µM | GI50 (OVCAR-5 ovarian) > 100 µM | GI50 (OVCAR-8 ovarian) 13.5 µM | GI50 (PC-3 prostate) 5.6 µM | GI50 (RPMI-8226 leukemia) 7.14 µM | GI50 (RXF 393 renal) 2090 nM | GI50 (SF-268 CNS) 12.4 µM | GI50 (SF-295 CNS) 3 µM | GI50 (SF-539 CNS) 1790 nM | GI50 (SK-MEL-2 melanoma) 16.1 µM | GI50 (SK-MEL-28 melanoma) 6.07 µM | GI50 (SK-MEL-5 melanoma) 2960 nM | GI50 (SK-OV-3 ovarian) 3.22 µM | GI50 (SN12C renal) > 100 µM | GI50 (SNB-19 CNS) 13.1 µM | GI50 (SNB-75 CNS) 3.86 µM | GI50 (SR leukemia) > 100 µM | GI50 (T-47D breast) 4.27 µM | GI50 (TK-10 renal) 6.22 µM | GI50 (U251 CNS) 3.72 µM | GI50 (UACC-257 melanoma) 84.5 µM | GI50 (UACC-62 melanoma) 2960 nM | GI50 (UO-31 renal) 2920 nM
24.2 µM: TGI (TK-10 renal)
13.1 µM: TGI (UACC-62 melanoma)
20.6 µM: TGI (HOP-62 NSCLC)
20.7 µM: TGI (CAKI-1 renal)
18.5 µM: TGI (U251 CNS)
11.2 µM: TGI (HCT-116 colon)
> 100 µM: TGI (A549 NSCLC) | TGI (CCRF-CEM leukemia) | TGI (DU-145 prostate) | TGI (EKVX NSCLC) | TGI (HCC-2998 colon) | TGI (HCT-15 colon) | TGI (HL-60(TB) leukemia) | TGI (HT29 colon) | TGI (IGROV1 ovarian) | TGI (KM12 colon) | TGI (LOX IMVI melanoma) | TGI (M14 melanoma) | TGI (MCF7 breast) | TGI (MDA-MB-435) | TGI (MOLT-4 leukemia) | TGI (NCI-H460 lung) | TGI (OVCAR-3 ovarian) | TGI (OVCAR-4 ovarian) | TGI (OVCAR-5 ovarian) | TGI (OVCAR-8 ovarian) | TGI (PC-3 prostate) | TGI (RPMI-8226 leukemia) | TGI (SF-268 CNS) | TGI (SK-MEL-28 melanoma) | TGI (SN12C renal) | TGI (SR leukemia) | TGI (T-47D breast) | TGI (UACC-257 melanoma)
18.9 µM: TGI (HOP-92 NSCLC)
5.27 µM: TGI (RXF 393 renal)
39.9 µM: TGI (SNB-75 CNS)
20.4 µM: TGI (NCI/ADR-RES ovarian)
3.67 µM: TGI (SF-539 CNS)
29.4 µM: TGI (NCI-H522 lung)
6.84 µM: TGI (MDA-MB-231 breast)
40.3 µM: TGI (SNB-19 CNS)
11.4 µM: TGI (ACHN renal)
19.8 µM: TGI (A498 renal)
47.9 µM: TGI (SK-MEL-2 melanoma)
6.24 µM: TGI (NCI-H226 lung)
11.9 µM: TGI (SF-295 CNS)
4.62 µM: TGI (786-0 renal)
21.2 µM: TGI (MDA-MB-468 breast)
